≈ marks a conversion by molar mass, not a printed value. Read-outs that look alike come from different tables or passages of the source.
What was measured:
Assay type in all cases: cell-based
[1] = test system: K. pneumoniae 700721; experiment: Minimal inhibitory concentration, K. pneumoniae 700721; settings: read-out: MIC (μM) K. pneumoniae 700721
Procedure, shortened: (§1)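 Overnight cultures in LB (TSA for S. aureus) at 37 °C, diluted 1:100 twice, then exposed to twofold serial dilutions of compound from DMSO stock. Plates incubated unshaken 16 h at 37 °C and read at OD600. MIC (µM) is the lowest concentration inhibiting growth.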

[2] = test system: S. aureus RN4220; experiment: Minimal inhibitory concentration, S. aureus RN4220; settings: read-out: MIC (μM) S. aureus RN4220
Procedure, shortened: as §1

[3] = test system: S. aureus MW2; experiment: Minimal inhibitory concentration, S. aureus MW2; settings: read-out: MIC (μM) S. aureus MW2 (MRSA)
Procedure, shortened: as §1

[4] = test system: A. baumannii 19606; experiment: Minimal inhibitory concentration, A. baumannii 19606; settings: read-out: MIC (μM) A. baumannii 19606
Procedure, shortened: as §1

[5] = test system: E. cloacae 13047; experiment: Minimal inhibitory concentration, E. cloacae 13047; settings: read-out: MIC (μM) E. cloacae 13047
Procedure, shortened: as §1

[6] = test system: E. coli 25922; experiment: Minimal inhibitory concentration, E. coli 25922; settings: read-out: MIC (μM) E. coli 25922
Procedure, shortened: as §1

[7] = test system: E. coli MC4100; experiment: Minimal inhibitory concentration, E. coli MC4100; settings: read-out: MIC (μM) E. coli MC4100 ara+
Procedure, shortened: as §1

[8] = Staphylococcus aureus, MRSA, 16 h
[9] = Klebsiella pneumoniae, 700721, 16 hour minimal inhibitory concentration at 37° C.
[10] = Staphylococcus aureus, RN4220, 16 h, 16 hour minimal inhibitory concentration at 37° C.
[11] = Staphylococcus aureus, MRSA, 16 h, 16 hour minimal inhibitory concentration at 37° C.
[12] = Acinetobacter baumannii, 19606, 16 h, 16 hour minimal inhibitory concentration at 37° C.
[13] = Enterobacter cloacae, 13047, 16 hour minimal inhibitory concentration at 37° C.
[14] = Escherichia coli, 25922, 16 h, 16 hour minimal inhibitory concentration at 37° C.
[15] = Escherichia coli, MC4100, 16 h, 16 hour minimal inhibitory concentration at 37° C.
[16] = 16 hour minimal inhibitory concentration at 37° C.

Row | SMILES | MIC [1, 9] [µM] | MIC [2, 10] [µM] | MIC [3, 11] [µM] | MIC [4, 12] [µM] | MIC [5, 13] [µM] | MIC [6, 14] [µM] | MIC [7, 15] [µM] | also measured
1 | CO[C@@H]1[C@@H](OC(=O)c2ccc(C)[nH]2)[C@@H](O)[C@H](Oc2ccc3c(O)c(NC(=O)c4ccc(O)c(CC=C(C)C)c4)c(=O)oc3c2C)OC1(C)C [Compound 112] |  |  |  |  |  |  |  | MIC ([1]; Klebsiella pneumoniae, 700721, 16 h): 37 µM (≈ 25 µg/mL); MIC ([2]; Staphylococcus aureus, RN4220, 16 h): < 0.01 µM; MIC [3, 8]: < 0.01 µM; MIC ([4]; Acinetobacter baumannii, 19606, 16 h): < 0.11 µM; MIC ([5]; Enterobacter cloacae, 13047, 16 h): > 100 µM; MIC ([6]; Escherichia coli, 25922, 16 h): 18.5 µM (≈ 12.5 µg/mL); MIC ([7]; Escherichia coli, MC4100, 16 h): 74 µM (≈ 50.1 µg/mL)
2 | CO[C@@H]1[C@@H](OC(N)=O)[C@@H](O)[C@H](Oc2ccc3c(O)c(NC(=O)c4cc(Oc5ccccc5)c(O)cc4O)c(=O)oc3c2C)OC1(C)C [Compound 244] | 38 (≈ 24.8 µg/mL) | 19 (≈ 12.4 µg/mL) | 19 (≈ 12.4 µg/mL) | > 50 | > 100 | 38 (≈ 24.8 µg/mL) | 4.8 (≈ 3.13 µg/mL) | 
3 | CO[C@@H]1[C@@H](OC(N)=O)[C@@H](O)[C@H](Oc2ccc3c(O)c(NC(=O)c4ccc(CN)cc4)c(=O)oc3c2C)OC1(C)C [Compound 207] | > 100 | > 100 | > 100 | > 50 | > 100 | > 200 | > 200 | 
4 | CO[C@@H]1[C@@H](O)[C@@H](OC(=O)NC(C)(C)C)[C@H](Oc2ccc3c(O)c(NC(=O)c4ccc(O)c(CC=C(C)C)c4)c(=O)oc3c2C)OC1(C)C [Compound 106] |  |  |  |  |  |  |  | MIC [1, 16]: >100 µM; MIC [2, 16]: >100 µM; MIC [3, 16]: >100 µM; MIC [4, 16]: >50 µM; MIC [5, 16]: >100 µM; MIC [6, 16]: >200 µM; MIC [7, 16]: >200 µM
5 | CO[C@@H]1[C@@H](OC(N)=O)[C@@H](O)[C@H](Oc2ccc3c(O)c(NC(=O)c4cc(Oc5ccccc5)ccn4)c(=O)oc3c2C)OC1(C)C [Compound 239] | > 100 | 20 (≈ 12.4 µg/mL) | 20 (≈ 12.4 µg/mL) | > 50 | > 100 | > 200 | > 200 | 
6 | CO[C@@H]1[C@@H](OC(N)=O)[C@@H](O)[C@H](Oc2ccc3c(O)c(NC(=O)c4cccc(Oc5ccc(Cl)cc5)c4)c(=O)oc3c2C)OC1(C)C [Compound 243] | > 100 | 10 (≈ 6.55 µg/mL) | 10 (≈ 6.55 µg/mL) | > 50 | > 100 | 38 (≈ 24.9 µg/mL) | 4.8 (≈ 3.14 µg/mL) | 
7 | CO[C@@H]1[C@@H](OC(N)=O)[C@@H](O)[C@H](Oc2ccc3c(O)c(NC(=O)c4cccc(Oc5ccc(C(C)(C)C)cc5)c4)c(=O)oc3c2C)OC1(C)C [Compound 248] | > 100 | 2.3 (≈ 1.56 µg/mL) | 2.3 (≈ 1.56 µg/mL) | > 50 | > 100 | 148 (≈ 100 µg/mL) | > 200 | 
8 | CO[C@@H]1[C@@H](OC(N)=O)[C@@H](O)[C@H](Oc2ccc3c(O)c(NC(=O)c4cccc(Nc5ccccc5)c4)c(=O)oc3c2C)OC1(C)C [Compound 218] | > 100 | 10 (≈ 6.2 µg/mL) | 10 (≈ 6.2 µg/mL) | > 50 | > 100 | 161 (≈ 99.8 µg/mL) | 80 (≈ 49.6 µg/mL) | 
9 | CO[C@@H]1[C@@H](OC(=O)NC2CCCC2)[C@@H](O)[C@H](Oc2ccc3c(O)c(NC(=O)c4ccc(O)c(CC=C(C)C)c4)c(=O)oc3c2C)OC1(C)C [Compound 108] |  |  |  |  |  |  |  | MIC [1, 16]: >100 µM; MIC [2, 16]: >100 µM; MIC [3, 16]: >100 µM; MIC [4, 16]: >50 µM; MIC [5, 16]: >100 µM; MIC [6, 16]: >200 µM; MIC [7, 16]: >200 µM
10 | CO[C@@H]1[C@@H](OC(N)=O)[C@@H](O)[C@H](Oc2ccc3c(O)c(NC(=O)c4cccc(Oc5cccc(C(F)(F)F)c5)c4)c(=O)oc3c2C)OC1(C)C [Compound 241] | > 100 | 9.08 (≈ 6.25 µg/mL) | 9.08 (≈ 6.25 µg/mL) | > 50 | > 100 | 145 (≈ 99.8 µg/mL) | 155 (≈ 107 µg/mL) | 
11 | CO[C@@H]1[C@@H](OC(N)=O)[C@@H](O)[C@H](Oc2ccc3c(O)c(NC(=O)c4cccc(Br)c4)c(=O)oc3c2C)OC1(C)C [Compound 232] | > 100 | 82 (≈ 49.8 µg/mL) | 82 (≈ 49.8 µg/mL) | > 50 | > 100 | > 200 | > 200 | 
12 | CO[C@@H]1[C@@H](OC(N)=O)[C@@H](O)[C@H](Oc2ccc3c(O)c(NC(=O)c4cccc(Oc5cccc(Cl)c5)c4)c(=O)oc3c2C)OC1(C)C [Compound 245] | > 100 | 10 (≈ 6.55 µg/mL) | 19 (≈ 12.4 µg/mL) | > 50 | > 100 | 76 (≈ 49.8 µg/mL) | 38 (≈ 24.9 µg/mL) | 
13 | CO[C@@H]1[C@@H](O)[C@@H](OC(=O)c2cccn2C)[C@H](Oc2ccc3c(O)c(NC(=O)c4ccc(O)c(CC=C(C)C)c4)c(=O)oc3c2C)OC1(C)C [Compound 114] |  |  |  |  |  |  |  | MIC [1, 16]: >100 µM; MIC [2, 16]: 74 µM (≈ 50.1 µg/mL); MIC [3, 16]: 74 µM (≈ 50.1 µg/mL); MIC [4, 16]: >50 µM; MIC [5, 16]: >100 µM; MIC [6, 16]: >200 µM; MIC [7, 16]: >200 µM
14 | CO[C@@H]1[C@@H](OC(N)=O)[C@@H](O)[C@H](Oc2ccc3c(O)c(NC(=O)c4ccc(F)c(CC=C(C)C)c4)c(=O)oc3c2C)OC1(C)C [Compound 101] | 81 (≈ 49.8 µg/mL) | 2 (≈ 1.23 µg/mL) |  |  | > 100 |  |  | MIC [3, 8]: 1 µM (≈ 0.615 µg/mL); MIC ([4]; Acinetobacter baumannii, 19606, 16 hour minimal inhibitory concentration at 37° C.): 41 µM (≈ 25.2 µg/mL); MIC ([6]; Escherichia coli, 25922, 16 hour minimal inhibitory concentration at 37° C.): 20 µM (≈ 12.3 µg/mL); MIC ([7]; Escherichia coli, MC4100, 16 hour minimal inhibitory concentration at 37° C.): 20 µM (≈ 12.3 µg/mL)
15 | CO[C@@H]1[C@@H](OC(N)=O)[C@@H](O)[C@H](Oc2ccc3c(O)c(NC(=O)c4cccc(-c5ccccc5Br)c4)c(=O)oc3c2C)OC1(C)C [Compound 235] | > 100 | 9 (≈ 6.15 µg/mL) | 5 (≈ 3.42 µg/mL) | > 50 | > 100 | 18 (≈ 12.3 µg/mL) | 18 (≈ 12.3 µg/mL) | 
16 | CCNC(=O)O[C@H]1[C@H](Oc2ccc3c(O)c(NC(=O)c4ccc(O)c(CC=C(C)C)c4)c(=O)oc3c2C)OC(C)(C)[C@H](OC)[C@H]1O [Compound 104] |  |  |  |  |  |  |  | MIC [1, 16]: >100 µM; MIC [2, 16]: 2 µM (≈ 1.28 µg/mL); MIC [3, 16]: 2 µM (≈ 1.28 µg/mL); MIC [4, 16]: 10 µM (≈ 6.41 µg/mL); MIC [5, 16]: >100 µM; MIC [6, 16]: 156 µM (≈ 99.9 µg/mL); MIC [7, 16]: >200 µM
17 | CO[C@@H]1[C@@H](OC(N)=O)[C@@H](O)[C@H](Oc2ccc3c(O)c(NC(=O)c4cccc(Oc5ccc(C(F)(F)F)cc5)c4)c(=O)oc3c2C)OC1(C)C [Compound 251] | > 100 | 9 (≈ 6.2 µg/mL) | 9 (≈ 6.2 µg/mL) | > 50 | > 100 | 9 (≈ 6.2 µg/mL) | 4.5 (≈ 3.1 µg/mL) | 
18 | CO[C@@H]1[C@@H](OC(N)=O)[C@@H](O)[C@H](Oc2ccc3c(O)c(NC(=O)c4cccc(-c5cc[nH]n5)c4)c(=O)oc3c2C)OC1(C)C [Compound 201] | > 100 | 42 (≈ 25 µg/mL) | 42 (≈ 25 µg/mL) | > 50 | > 100 | > 200 | > 200 | 
19 | C#CCOc1cccc(C(=O)Nc2c(O)c3ccc(O[C@@H]4OC(C)(C)[C@H](OC)[C@@H](OC(N)=O)[C@H]4O)c(C)c3oc2=O)c1 [Compound 230] | > 100 | 86 (≈ 50.1 µg/mL) | 86 (≈ 50.1 µg/mL) | > 50 | > 100 | 172 (≈ 100 µg/mL) | 86 (≈ 50.1 µg/mL) | 
20 | CO[C@@H]1[C@@H](OC(N)=O)[C@@H](O)[C@H](Oc2ccc3c(OCc4ccccc4)c(NC(=O)c4ccc(O)c(CC=C(C)C)c4)c(=O)oc3c2C)OC1(C)C [Compound 211] | > 100 | > 100 | > 100 | > 50 | > 100 | > 200 | > 200 | 
21 | CO[C@@H]1[C@@H](OC(N)=O)[C@@H](O)[C@H](Oc2ccc3c(O)c(NC(=O)c4ccc(Br)cc4)c(=O)oc3c2C)OC1(C)C [Compound 204] | > 100 | 82 (≈ 49.8 µg/mL) | 82 (≈ 49.8 µg/mL) | > 50 | > 100 | > 200 | > 200 | 
22 | CO[C@@H]1[C@@H](OC(N)=O)[C@@H](O)[C@H](Oc2ccc3c(O)c(NC(=O)c4cccc(Oc5ccc(Cl)cc5)n4)c(=O)oc3c2C)OC1(C)C [Compound 238] | > 100 | 10 (≈ 6.56 µg/mL) | 10 (≈ 6.56 µg/mL) | > 50 | > 100 | > 200 | 152 (≈ 99.7 µg/mL) | 

Source: patent US11713335B2, “Aminocoumarin compounds and methods of their use” (President and Fellows of Harvard College, priority 2018, dated 2023)
